Reference: paper PMC10444810, “Induction of open-form bile canaliculus formation by hepatocytes for evaluation of biliary drug excretion” (Communications Biology, 2023)
Several values for one entry are separate records, joined by “and”; a condition that tells them apart may be missing. Equal values may be shown once.

Tested on: icHep (PXB-cells on claudin-1, -2, -3, -9 coated Transwell permeable support)
Assay: icHep permeation assay (sinusoidal to bile side) to estimate drug biliary excretion clearance
Conditions: for In vitro CLbile, app: single replicates; for Predicted in vivo CLbile, int, Mean: mean of 3; for In vitro CLbile, int / Predicted in vivo CLbile, int: single replicate; for Biliary excretion clearance, in vivo, predicted, CLbile, int: scaled up from in vitro CLbile,int, mean ± S.D., n = 3
[1] = Control, block with icHep (HUM181001B)
[2] = Control, block with icHep (JFC)

Compound | In vitro CLbile, app, Mean [1] [ul/min/106 cells] | In vitro CLbile, app [1] | In vitro CLbile, app, Mean [2] [ul/min/106 cells] | In vitro CLbile, app [2] | Predicted in vivo CLbile, int, Mean (icHep (HUM181001B)) [mL/min] | In vitro CLbile, int (icHep (HUM181001B)) | Predicted in vivo CLbile, int (icHep (HUM181001B)) | In vitro CLbile, app, Mean (icHep (HUM181001B)) [ul/min/106 cells] | Biliary excretion clearance, in vivo, predicted, CLbile, int (icHep (HUM181001B)) [mL/min] | In vitro CLbile, app (icHep (HUM181001B)) | Predicted in vivo CLbile, int, Mean (icHep (JFC)) [mL/min] | In vitro CLbile, int (icHep (JFC)) | Predicted in vivo CLbile, int (icHep (JFC)) | In vitro CLbile, app, Mean (icHep (JFC)) [ul/min/106 cells] | Biliary excretion clearance, in vivo, predicted, CLbile, int (icHep (JFC)) [mL/min] | In vitro CLbile, app (icHep (JFC))
CN/C(=N/CCSCc1nc[nH]c1C)NC#N [Cimetidine, cimetidine] | 0.585 | 0.596 ul/min/106 cells and 0.590 ul/min/106 cells and 0.570 ul/min/106 cells | 1.14 | 1.06 ul/min/106 cells and 1.22 ul/min/106 cells and 1.15 ul/min/106 cells | 97.8 | 0.316 ul/min/106 cells and 0.409 ul/min/106 cells and 0.633 ul/min/106 cells | 68.3 mL/min and 88.4 mL/min and 137 mL/min | 1.04 | 97.8 ± 35.1 | 0.913 ul/min/106 cells and 1.00 ul/min/106 cells and 1.20 ul/min/106 cells | 188 | 0.810 ul/min/106 cells and 1.04 ul/min/106 cells and 0.756 ul/min/106 cells | 175 mL/min and 225 mL/min and 163 mL/min | 2.01 | 188 ± 32.8 | 1.87 ul/min/106 cells and 2.26 ul/min/106 cells and 1.90 ul/min/106 cells
C[C@H]1O[C@@H](O[C@H]2[C@@H](O)C[C@H](O[C@H]3[C@@H](O)C[C@H](O[C@H]4CC[C@@]5(C)[C@H](CC[C@@H]6[C@@H]5C[C@@H](O)[C@]5(C)[C@@H](C7=CC(=O)OC7)CC[C@]65O)C4)O[C@@H]3C)O[C@@H]2C)C[C@H](O)[C@@H]1O [Digoxin, digoxin] | – | – | – | – | – | – | 242 mL/min and 175 mL/min | – | – | – | – | – | 71.3 mL/min and 159 mL/min and 72.7 mL/min | – | – | –
CC[C@H]1OC(=O)[C@H](C)[C@@H](O[C@H]2C[C@@](C)(OC)[C@@H](O)[C@H](C)O2)[C@H](C)[C@@H](O[C@@H]2O[C@H](C)C[C@H](N(C)C)[C@H]2O)[C@](C)(O)C[C@@H](C)C(=O)[C@H](C)[C@@H](O)[C@]1(C)O [Erythromycin, erythromycin] | 0.624 | 0.611 ul/min/106 cells and 0.632 ul/min/106 cells and 0.630 ul/min/106 cells | – | 1.41 ul/min/106 cells and 1.36 ul/min/106 cells and 1.35 ul/min/106 cells | 171 | 0.865 ul/min/106 cells and 0.795 ul/min/106 cells and 0.720 ul/min/106 cells | 187 mL/min and 172 mL/min and 155 mL/min | – | 171 ± 15.6 | 1.48 ul/min/106 cells and 1.43 ul/min/106 cells and 1.35 ul/min/106 cells | 158 | 0.650 ul/min/106 cells and 0.762 ul/min/106 cells and 0.784 ul/min/106 cells | 140 mL/min and 165 mL/min and 169 mL/min | – | 158 ± 15.6 | 2.06 ul/min/106 cells and 2.13 ul/min/106 cells
CN(Cc1cnc2nc(N)nc(N)c2n1)c1ccc(C(=O)N[C@@H](CCC(=O)O)C(=O)O)cc1 [Methotrexate, methotrexate] | 1.51 | 1.65 ul/min/106 cells and 1.43 ul/min/106 cells and 1.44 ul/min/106 cells | 1.37 | 1.41 ul/min/106 cells and 1.36 ul/min/106 cells and 1.35 ul/min/106 cells | 157 | 0.425 ul/min/106 cells and 0.942 ul/min/106 cells and 0.808 ul/min/106 cells | 91.9 mL/min and 203 mL/min and 175 mL/min | 2.23 | 157 ± 57.9 | 2.08 ul/min/106 cells and 2.37 ul/min/106 cells and 2.25 ul/min/106 cells | 241 | 1.21 ul/min/106 cells and 1.27 ul/min/106 cells and 0.865 ul/min/106 cells | 261 mL/min and 274 mL/min and 187 mL/min | 2.11 | 241 ± 46.9 | 2.06 ul/min/106 cells and 2.12 ul/min/106 cells and 2.13 ul/min/106 cells
CCOc1ccc2ccccc2c1C(=O)N[C@@H]1C(=O)N2[C@@H]1SC(C)(C)[C@@H]2C(=O)O [Nafcillin, nafcillin] | 0.838 | 0.848 ul/min/106 cells and 0.836 ul/min/106 cells and 0.830 ul/min/106 cells | 1.10 | 0.724 ul/min/106 cells and 1.28 ul/min/106 cells and 1.30 ul/min/106 cells | 232 | 0.964 ul/min/106 cells and 1.03 ul/min/106 cells and 1.23 ul/min/106 cells | 208 mL/min and 222 mL/min and 266 mL/min | 1.91 | 232 ± 30.1 | 1.81 ul/min/106 cells and 1.86 ul/min/106 cells and 2.06 ul/min/106 cells | 479 | 3.37 ul/min/106 cells and 1.82 ul/min/106 cells and 1.47 ul/min/106 cells | 727 mL/min and 394 mL/min and 316 mL/min | 3.32 | 479 ± 218 | 4.09 ul/min/106 cells and 3.10 ul/min/106 cells and 2.77 ul/min/106 cells
CC[C@]1(O)C[C@H]2CN(CCc3c([nH]c4ccccc34)[C@@](C(=O)OC)(c3cc4c(cc3OC)N(C=O)[C@H]3[C@@](O)(C(=O)OC)[C@H](OC(C)=O)[C@]5(CC)C=CCN6CC[C@]43[C@@H]65)C2)C1 [Vincristine, vincristine] | 0.159 | 0.124 ul/min/106 cells and 0.154 ul/min/106 cells and 0.199 ul/min/106 cells | 0.205 | 0.186 ul/min/106 cells and 0.220 ul/min/106 cells and 0.208 ul/min/106 cells | 27.6 | 0.176 ul/min/106 cells and 0.118 ul/min/106 cells and 0.0898 ul/min/106 cells | 38.0 mL/min and 25.6 mL/min and 19.4 mL/min | 0.287 | 27.6 ± 9.46 | 0.300 ul/min/106 cells and 0.273 ul/min/106 cells and 0.289 ul/min/106 cells | 37.3 | 0.159 ul/min/106 cells and 0.230 ul/min/106 cells and 0.129 ul/min/106 cells | 34.3 mL/min and 49.7 mL/min and 27.8 mL/min | 0.377 | 37.3 ± 11.2 | 0.345 ul/min/106 cells and 0.450 ul/min/106 cells and 0.337 ul/min/106 cells
